How the values were obtained:
Assay type in all cases: in vivo
[1] = system: C57BL/6J mice; test: The lipid-lowering effect in C57BL/6J mice (high-fat diet); conditions: HFD C57BL/6J mice, after 21 days, six mice per group
Experimental: 1. The Lipid-Lowering Effect in C57BL/6J Mice
8-week C57BL/6J mice are divided into standard diet (STD) group and the high-fat diet (HFD) group. In the HFD group, the Simvastatin (5 mg/kg), Sildenafil-Atorvastatinic acid complex salt, Sildenafil-Rosuvastatinic acid complex salt, Sildenafil-Simvastatinic acid complex salt (2.5 mg/kg) are separately administered orally. After 21 days, the amounts (mg/d1) of the triglyceride (TG), the total cholesterol (Tot.-C), the high density lipoprotein cholesterol (HDL-C), and the low density lipoprotein cholesterol (LDL-C) of six mice for each group are measured as shown in Tables 2.

[2] = system: male Wistar rats treated with MCT; test: Monocrotaline (MCT)-induced pulmonary arterial hypertension in rats, pulmonary artery blood pressure; conditions: for PABP: MCT (60 mg, intracutaneously)-treated male Wistar rats, 2.5 mg/kg/day p.o., MCT alone 25 ± 2.3, control 11 ± 1.4; for effect on pulmonary artery blood pressure (PABP), in words: MCT-treated male Wistar rats, 2.5 mg/kg orally every day
Description: 2. The Monocrotaline (MCT)-Treated Rats Show the Decreased Pulmonary Aterial Hypertension
Pulmonary aterial hypertension in MCT-treated rats is caused on day 21 after the intracutaneously injection.

[3] = system: TGF-β; test: Bleomycin (BM)-induced lung fibrosis in mice, TGF-β expression in tracheal irrigation solution by EIA; conditions: 60 mg/kg BM inhalation, *P < 0.05 vs control group
Experimental: 3. Sildenafil-Simvastatinic Acid Complex Salts Inhibit the Lung Fibrosis in Mice Induced by Bleomycin (BM) Mediated Via TGF-β Expression in Lung The increased amount of the synthetic collagen and the generation of the macrophage in alveolus may facilitate the formulation of transforming growth factor beta (TGF-β), and the expression of TGF-β is looked as a biomarker of the lung fibrosis. The simvastatin (5 mg/kg) and Sildenafil-Simvastatinic acid complex salts (2.5 mg/kg) are orally administered to the mice for inhibiting the lung fibrosis induced by TGF-β expression in tracheal irrigation solution that resulted from 60 mg/kg BM inhalation (Table 4). The state of the TGF-β expression in the irrigation solution is measured by the enzyme immunoassay (EIA).

Row | Compound | HDL-C ([1]; 2.5 mg/kg orally) | LDL-C ([1]; 2.5 mg/kg orally) | TG ([1]; 2.5 mg/kg orally) | Tot.-C ([1]; 2.5 mg/kg orally) | PABP [2] | effect on pulmonary artery blood pressure (PABP), in words [2] | Changed amount of the lung TGF-β ([3]; 2.5 mg/kg orally) | HDL-C ([1]; 5 mg/kg orally) | LDL-C ([1]; 5 mg/kg orally) | TG ([1]; 5 mg/kg orally) | Tot.-C ([1]; 5 mg/kg orally) | Changed amount of the lung TGF-β ([3]; 5 mg/kg orally)
1 | Sildenafil-Rosuvastatinic acid complex salt | 103.4 ± 1.5 mg/d1 | 15.2 ± 1.7 mg/d1 | 83.2 ± 5.3 mg/d1 | 131.7 ± 1.6 mg/d1 | – | – | – | – | – | – | – | –
2 | Sildenafil-γ-Polyglutamate complex | – | – | – | – | 11 ± 0.8 mmHg | decreasing the pulmonary artery blood pressure | – | – | – | – | – | –
3 | Sildenafil-Atorvastatinic acid complex salt | 97.6 ± 2.8 mg/d1 | 16.8 ± 1.8 mg/d1 | 79.2 ± 4.6 mg/d1 | 130.7 ± 1.7 mg/d1 | – | – | – | – | – | – | – | –
4 | Sildenafil-Simvastatinic acid complex salt | 102.4 ± 2.3 mg/d1 | 17.3 ± 1.4 mg/d1 | 81.2 ± 4.4 mg/d1 | 129.7 ± 1.4 mg/d1 | 12 ± 1.5 mmHg | decreasing the pulmonary artery blood pressure | 43 ± 1.8%* | – | – | – | – | –
5 | CCC(C)(C)C(=O)O[C@H]1C[C@@H](C)C=C2C=C[C@H](C)[C@H](CC[C@@H]3C[C@@H](O)CC(=O)O3)[C@H]21 [Simvastatin, reference compound] | – | – | – | – | – | – | – | 103.18 ± 2.5 mg/d1 | 15.3 ± 1.3 mg/d1 | 82.67 ± 6.3 mg/d1 | 133.67 ± 4.3 mg/d1 | 40 ± 4.3%*
